The values below come from patent publication US20130296344A1, “CHROMENE DERIVATIVES AND THEIR ANALOGA AS WNT PATHWAY ANTAGONISTS” (Ruprecht-Karls-Universitat Heidelberg, priority 2010, published 2013).

Read-outs that look alike come from different tables or passages of the source. Where only a bound is given, the exact number is not on record here.

Series [1] relates to Dld1 colon carcinoma cells. Description: Antiproliferative activity against Dld1 colon carcinoma cells (nuclei count). Format: cell-based, human. Here is the method:
(§1) For examination of cell line-specific cytotoxicity, compounds were applied to human colorectal cancer cells (HCT116, denoted (1); SW480, denoted (2); Dld-1, denoted (3)) and human fibroblasts (HS-68, denoted (4)), cultured in Mc Coy's ((1)) and Dulbecco's Modified Eagles Medium ((2)-(4)), supplemented with 10% ((1)-(3)) and 20% ((4)) fetal calf serum and 1% penicillin/streptomycin. Cells were grown in T75 flasks at 37° C., 5% CO2 and trypsinized when 60-80% confluent by adding 2 ml of 0.25% Trypsin-EDTA (ethylenediaminetetraacetic acid) solution. Cells were then re-suspended into culture medium yielding approx. 750 cells, suspended in 45 microl medium, were plated into each well of a black 384-well plate for fluorescence imaging experiments. 24-36 hr later 5 microl compound solution (100 microM compound dissolved in ultra pure water containing 1% DMSO (dimethylsulfoxide)), were added to achieve a final concentration of 10 microM and were incubated for at least 72 hr. Compound incubation was terminated by (a) fixation and (b) permeabilisation of cells, followed by (c) fluorescence labeling of cell nuclei for cytometric quantification or by immunocytochemistry for microscopic evaluation of cell morphology. […] Solutions were incubated for 15 (a,b) and 30 min (c) in the dark at room temperature. Cells were washed twice between each step with 30 microl PBS. The assay system was miniaturized and adapted to automated workflow using liquid-handling robotics.
(§2) Cell line-specific cytotoxicity was quantified by counting the number of Hoechst labeled nuclei per well of a 384-well plate using a plate cytometer. Data obtained with the cytometer was analysed using standard data analysis software.
(§3) The examination of the antiproliferative activity against human colon carcinoma cells Dld1, HCT116 and SW480 was carried out in analogy to the procedure carried out for HS68. The respective compound applied in increasing concentrations yielding final concentrations per well of 5 nM-90 microM.

The nature of series [2]: Cytotoxicity in HepG2 (CellTiterGlo). The format is cell-based. The note with it: human, HepG2 cells, 24 h after compound addition, 5 nM-100 microM, read-out: HepG2 IC50 (cytotoxic activity). On the procedure:
(§4) For examination of cytotoxicity in these cancer cell lines the commercial available CellTiterGlo® Reagent (Promega, USA) was used according to the manufactor. Compounds were applied to Hek293T (denoted (a)) or HepG2 (denoted (b)), cultured in Dulbecco's Modified Eagles Medium, supplemented with 10% fetal calf serum and 1% penicillin/streptomycin. Cells were grown in T75 flasks at 37° C., 5% CO2 and trypsinized when 60-80% confluent by adding 2 ml of 0.25% Trypsin-EDTA solution. Cells were then re-suspended into culture medium yielding approx. 4000 cells (a) or 4500 cells (b), suspended in 30 microl medium. 48 h after cell seeding, compounds were added to yield the desired final concentrations. 24 h after compound addition cytotoxicity was evaluated. For this purpose the media was removed and CellTiterGlo® was added according to the manufactors manual. In this assay the luciferase emission readout is directly correlated with the cellular amount of ATP, low luciferase emission thus is reflecting cytotoxicity of a compound.
(ATP-based viability assays read luminescence as a measure of living cells.)

Series [3] has as its system HCT116 colon carcinoma cells. The series is described as follows: Antiproliferative activity against HCT116 colon carcinoma cells (nuclei count). Format: cell-based, human. On the procedure: as §1, §2, §3
The next series has as its system Wnt pathway (Wnt1/Frzd8). The series is described as follows: Wnt signaling pathway reporter gene assay (6xTCF-luciferase, Wnt1/Frizzled 8/LRP6 stimulated Hek293T cells). The format is cell-based, mouse (Wnt1, human (LRP6). The source says:
To screen for small-molecule modulators of the Wnt signaling pathway, a reporter gene based assay describing the modulation of the TCF4 transcription factor was used. […]

Series [4] is described as follows: Cytotoxicity in Hek293T (CellTiterGlo). Format: cell-based. The note with it: human, Hek293T cells, 24 h after compound addition, 5 nM-100 microM, read-out: Hek293T IC50 (cytotoxic activity). On the procedure: as §4
Series [5] relates to human fibroblasts (HS-68). The series is described as follows: Cell line specific cytotoxicity, normal cells HS68 (nuclei count). Format: cell-based. The following applies: at least 72 hr incubation, Hoechst nuclei count, read-out: HS68 IC50 (influence on normal cells). On the procedure: as §1, §2
Identified hits were further evaluated by visual inspection of fluorescence micrographs obtained from imaging using a conventional fluorescence microscope.

The test system of series [6] is SW480 colon carcinoma cells. Description: Antiproliferative activity against SW480 colon carcinoma cells (nuclei count). The format is cell-based. The following applies: Homo sapiens, 5 nM-90 microM. On the procedure:
as §1, §2, §3

Where [7] appears, read: Homo sapiens, DLD-1, colon carcinoma cells, 5 nM-90 microM, nuclei count, read-out: Dld1 IC50.
The mark [8] stands for this setting: Homo sapiens, HCT-116, colon carcinoma cells, 5 nM-90 microM, nuclei count, read-out: HCT116 IC50.
Where [9] appears, read: Homo sapiens, HEK-293T, Hek293T, 6xTCF-luciferase reporter, 24 h incubation, 5 nM-100 microM, read-out: Wnt1/Frzd8 IC50 (Wnt pathway inhibitory activity).
[10] abbreviates: Table 7, racemate vs enantiomers, procedure of example 56, read-out: IC50 against colon cancer cell lines DLDl.
The mark [11] stands for this setting: Table 7, racemate vs enantiomers, procedure of example 56, read-out: IC50 against colon cancer cell lines HCT 116.
[12] abbreviates: Table 7, racemate vs enantiomers, procedure of example 54, read-out: IC50 against Wnt-Pathway.
Setting [13] is: Homo sapiens, HEK-293T, 24 h, Hek293T, 6xTCF-luciferase reporter, 24 h incubation, 5 nM-100 microM, read-out: Wnt1/Frzd8 IC50 (Wnt pathway inhibitory activity).

On to `COc1cc(C2C(C#N)=C(N)Oc3c2ccc2ccc(N)nc32)cc(Br)c1OC` (racemic) [(20), 3,6-Diamino-1-(3-bromo-4,5-dimethoxy-phenyl)-1H-4-oxa-5-aza-phenanthrene-2-carbonitrile], for which the IC50 in series [1] (Homo sapiens, DLD-1, Table 7, racemate vs enantiomers, procedure of example 56, read-out: IC50 against colon cancer cell lines DLDl) stood at 0.01 µM; in series [1] (setting [7]), 0.014 µM; in series [3] (Homo sapiens, HCT-116, Table 7, racemate vs enantiomers, procedure of example 56, read-out: IC50 against colon cancer cell lines HCT 116), 0.005 µM; in series [3] (setting [8]), 0.015 µM; in the series on Wnt pathway (Wnt1/Frzd8) (setting [9]) it was 0.006 µM; with Wnt pathway (Wnt1/Frzd8) (Homo sapiens, HEK-293T, Table 7, racemate vs enantiomers, procedure of example 54, read-out: IC50 against Wnt-Pathway), 0.005 µM. The IC50 at 24 h was 37 µM in series [2] and greater than 90 µM in series [4].
Take `COc1cc(C2C(C#N)=C(N)Oc3c2ccc2ccc(N)nc32)cc(Br)c1OC` (single isomer, unassigned) [(20)-1, 3,6-Diamino-1-(3-bromo-4,5-dimethoxy-phenyl)-1H-4-oxa-5-aza-phenanthrene-2-carbonitrile]: the IC50 (in series [1] (setting [10]); in series [3] (setting [11]); with Wnt pathway (Wnt1/Frzd8) (setting [12])) was less than 0.005 µM in each case.
Turning to `COc1cc(C2C(C#N)=C(N)Oc3c2ccc2ccc(N)nc32)cc(Br)c1OC` (single isomer, unassigned) [(20)-2, 3,6-Diamino-1-(3-bromo-4,5-dimethoxy-phenyl)-1H-4-oxa-5-aza-phenanthrene-2-carbonitrile], the IC50 is 0.356 µM in series [1] (setting [10]), 0.354 µM in series [3] (setting [11]) and 0.33 µM in the series with Wnt pathway (Wnt1/Frzd8) (setting [12]).
For the compound `COc1cc(C2C(C#N)=C(N)Oc3c2ccc2ccccc32)cc(Br)c1OC` (stereo not shown) [(1), 2-Amino-4-(3-bromo-4,5-dimethoxy-phenyl)-4H-benzo[h]chromene-3-carbonitrile], the IC50 in series [1] (setting [7]) came to 0.038 µM; in series [3] (setting [8]), 0.049 µM; in series [5] it was 0.087 µM; in the series on Wnt pathway (Wnt1/Frzd8) (setting [9]), 0.046 µM; in series [6] it was 0.056 µM. The IC50 at 24 h in series [2] and in series [4] was greater than 90 µM each time.
Take `C=CCOc1c(Br)cc(C2C(C(=O)OCC)=C(N)Oc3c2ccc2ccccc32)cc1OC` (stereo not shown) [(4), 4-(4-Allyloxy-3-bromo-5-methoxy-phenyl)-2-amino-4H-benzo[h]chromene-3-carboxylic acid ethyl ester]: the IC50 in series [1] (setting [7]) is 0.171 µM; in series [3] (setting [8]), 0.146 µM; in series [5] it was 0.215 µM; in the series with Wnt pathway (Wnt1/Frzd8) (setting [13]) it was 0.086 µM; in series [6] it was 0.332 µM. Also, the IC50 at 24 h in series [2] and in series [4] was greater than 90 µM each time.
Take `CCOC(=O)C1=C(N)Oc2c(ccc3ccccc23)C1c1cc(Br)c(OC)c(OC)c1` (stereo not shown) [(6), 2-Amino-4-(3-bromo-4,5-dimethoxy-phenyl)-4H-benzo[h]chromene-3-carboxylic acid ethyl ester]: the IC50 was 3.82 µM in series [1] (setting [7]); 8.6 µM in series [3] (setting [8]); greater than 90 µM in series [5]; 0.855 µM in the series with Wnt pathway (Wnt1/Frzd8) (setting [13]); 5.96 µM in series [6]. Also, the IC50 at 24 h in series [2] and in series [4] was greater than 90 µM throughout.
`COc1cc(C2C(C#N)=C(N)Oc3c2c(O)nc2ccccc32)cc(Br)c1OC` (stereo not shown) [(17), 2-Amino-4-(3-bromo-4,5-dimethoxy-phenyl)-5-hydroxy-4H-pyrano[3,2-c]quinoline-3-carbonitrile]: the IC50 in series [1] (setting [7]) came out at 0.643 µM; in series [3] (setting [8]) it was 0.305 µM; with Wnt pathway (Wnt1/Frzd8) (setting [9]) it was 0.02 µM; in series [6], 0.577 µM. Also, the IC50 at 24 h in series [2] and in series [4] was greater than 90 µM each time.
For `COc1cc(C2C(C#N)=C(N)Oc3c2ccc2ccc(O)nc32)cc(Br)c1OC` (stereo not shown) [(19), 3-Amino-1-(3-bromo-4,5-dimethoxy-phenyl)-6-hydroxy-1H-4-oxa-5-aza-phenanthrene-2-carbonitrile], the IC50 in series [1] (setting [7]) turned out to be 0.021 µM; in series [3] (setting [8]), 0.017 µM; with Wnt pathway (Wnt1/Frzd8) (setting [9]) it was 0.003 µM. For the same compound, the IC50 at 24 h in series [2] and in series [4] was greater than 90 µM each time.
For the compound `N#CC1=C(N)Oc2cc3c(cc2C1c1cc(F)c(F)c(F)c1)OCO3` (stereo not shown) [(39), 6-Amino-8-(3,4,5-trifluoro-phenyl)-8H-[1,3]dioxolo[4,5-g]chromene-7-carbonitrile], the IC50 in series [1] (setting [7]) was 1.08 µM; in series [3] (setting [8]), 0.666 µM; in the series on Wnt pathway (Wnt1/Frzd8) (setting [9]) it was 1.36 µM; in series [6], 2.69 µM. Besides, the IC50 at 24 h in series [2] and in series [4] was greater than 90 µM in each case.
